Experimental data published in PubChem BioAssay AID1963964 (Molecular Pharmacology Branch, DTP, NCI, 2024).
pIC50: −log10 of the molar value.

Test system: 997726-040-R-J2-PDC tumor spheroids, viability
Assay: Anticancer human tumor 997726-040-R-J2-PDC patient-derived squamous cell lung carcinoma cell line growth inhibition [PI3K]
Settings: spheroids with HUVEC and MSC; for pIC50: curve of first compound; for viability, T/C: stronger effect = lower value
Excerpt: Combinatorial screen of targeted agents with the PI3K inhibitors inavolisib, alpelisib, duvelisib, and copanlisib in multi-cell type tumor spheroids
A high-throughput screen of multi-cell type tumor spheroids was designed to identify active combinations of targeted small molecules and PI3K pathway inhibitors. Complex spheroids include a stromal component modeled by human endothelial cells (HUVEC) and fibroblasts modeled by human mesenchymal stem cells (MSCs). The concentration ranges selected for each drug and investigational agent were based upon clinically achievable concentrations if the clinical Cmax of the agent was known.
Compounds. The drugs and investigational agents: inavolisib (NSC800729), alpelisib (NSC765974), duvelisib (NSC772469), copanlisib (NSC816437), ipatasertib (NSC767898), afuresertib (NSC778305), talazoparib (NSC767125), sapanisertib (NSC764658), selumetinib (NSC741078), tovorafenib (DAY101, NSC766906), vemurafenib (NSC761431), ravoxertinib (NSC781343), sotorasib (NSC818433), MRTX1133 (NSC 836407), abemaciclib (NSC 768073), palbociclib (NSC758247), venetoclax (NSC 766270), SY5609 (NSC837396), enzalutamide (NSC755605), and darolutamide (NSC825331), were obtained from the National Cancer Institute (NCI) Developmental Therapeutics Program Chemical Repository. The FDA-approved anticancer drug set is available from the NCI Developmental Therapeutics Program. […] The stock solutions were prepared in dimethyl sulfoxide (DMSO, Sigma-Aldrich, St. Louis, MO, cat. D2650) at 800-fold the tested concentration and stored at -70 degrees C prior to their use. All drugs and investigational agents were tested over a range starting from a high concentration at or near the clinical Cmax and decreasing in half-log increments. If the clinical Cmax for an agent had not been determined, the highest concentration tested was 10 microM.
Cell Culture. All cells were maintained in an incubator at 37 degrees C and 5% CO2 with 95% humidity. The PDC lines were cultured according to standard operating procedures established by the NCI PDMR (https://pdmr.cancer.gov/sops/default.htm). All PDCs were thawed and cultured in Matrigel-coated flasks prepared with a working solution of 1X Ham's F-12 nutrient mix, without supplementation (Invitrogen, Waltham, MA, cat. 11765054), 100 U/mL penicillin-streptomycin (Invitrogen, cat. 15140122), and 2.5% Matrigel (Corning Inc., Corning, NY, cat. 354248) for the first three passages. The 354836-022-R-J1-PDC, 475296-252-R-J1-PDC, and 997726-040-R-J2-PDC lines were cultured in 6A media, which includes advanced DMEM/F-12 (Thermo Fisher Scientific, cat. 12634028), 10 mM HEPES (Thermo Fisher Scientific, cat. 15630080), 1X GlutaMAX supplement (Thermo Fisher Scientific, cat. 35050061), 0.1 mg/mL primocin (InvivoGen, San Diego, CA, cat. ant-pm-2), 10% defined fetal bovine serum, heat inactivated (HyClone Laboratories Inc., Logan, UT, cat. SH30070.03HI), 50% L-WRN conditioned media (ATCC, cat. CRL-3276), 1.25 mM N-Acetyl-L-cysteine (Sigma-Aldrich, cat. A9165), 10 mM nicotinamide (Sigma-Aldrich, cat. N0636), 1X B-27 supplement (Thermo Fisher Scientific, cat. 17504044), 1X N-2 supplement (Thermo Fisher Scientific, cat. 17502048), and 10 microM Y-27632 dihydrochloride (Tocris Bioscience, Bristol, United Kingdom, cat. 1254). The 624824-186-R-J2-PDC line was cultured in 6C/Colon 1B media, which includes all 6A media components plus 50 ng/mL human EGF recombinant protein (Thermo Fisher Scientific, cat. PHG0311). […]
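Also: spheroids exposed to compounds for seven days before readout.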

CCCS(=O)(=O)Nc1ccc(F)c(C(=O)c2c[nH]c3ncc(-c4ccc(Cl)cc4)cc23)c1F + CC(Nc1ccc2c(c1)OCCn1cc(N3C(=O)OCC3C(F)F)nc1-2)C(N)=O
pIC50 (second compound 0.00316 µM): 5.18
pIC50 (second compound 0.01 µM): 5.21
pIC50 (second compound 0.0316 µM): 5.30
pIC50 (second compound 0.1 µM): 5.46
pIC50 (second compound 0.316 µM): > 7.50
pIC50 (second compound 1 µM): > 7.50
viability, T/C (second compound 0.00316 µM, first compound 0.0316 µM): 83.8%
viability, T/C (second compound 0.00316 µM, first compound 0.1 µM): 101%
viability, T/C (second compound 0.00316 µM, first compound 0.316 µM): 98.2%
viability, T/C (second compound 0.00316 µM, first compound 1 µM): 108%
viability, T/C (second compound 0.00316 µM, first compound 3.16 µM): 107%
viability, T/C (second compound 0.00316 µM, first compound 10 µM): 20.9%
viability, T/C (second compound 0.01 µM, first compound 0.0316 µM): 76.5%
viability, T/C (second compound 0.01 µM, first compound 0.1 µM): 94.7%
viability, T/C (second compound 0.01 µM, first compound 0.316 µM): 90.7%
viability, T/C (second compound 0.01 µM, first compound 1 µM): 90.3%
viability, T/C (second compound 0.01 µM, first compound 3.16 µM): 97.1%
viability, T/C (second compound 0.01 µM, first compound 10 µM): 21.8%
viability, T/C (second compound 0.0316 µM, first compound 0.0316 µM): 65.1%
viability, T/C (second compound 0.0316 µM, first compound 0.1 µM): 64.1%
viability, T/C (second compound 0.0316 µM, first compound 0.316 µM): 72.4%
viability, T/C (second compound 0.0316 µM, first compound 1 µM): 72%
viability, T/C (second compound 0.0316 µM, first compound 3.16 µM): 70.3%
viability, T/C (second compound 0.0316 µM, first compound 10 µM): 21.8%
viability, T/C (second compound 0.1 µM, first compound 0.0316 µM): 54.6%
viability, T/C (second compound 0.1 µM, first compound 0.1 µM): 53.1%
viability, T/C (second compound 0.1 µM, first compound 0.316 µM): 49.4%
viability, T/C (second compound 0.1 µM, first compound 1 µM): 51.9%
viability, T/C (second compound 0.1 µM, first compound 3.16 µM): 52.9%
viability, T/C (second compound 0.1 µM, first compound 10 µM): 22.6%
viability, T/C (second compound 0.316 µM, first compound 0.0316 µM): 35.6%
viability, T/C (second compound 0.316 µM, first compound 0.1 µM): 36.8%
viability, T/C (second compound 0.316 µM, first compound 0.316 µM): 40.1%
viability, T/C (second compound 0.316 µM, first compound 1 µM): 43.6%
viability, T/C (second compound 0.316 µM, first compound 3.16 µM): 39.8%
viability, T/C (second compound 0.316 µM, first compound 10 µM): 17.3%
viability, T/C (second compound 1 µM, first compound 0.0316 µM): 35.6%
viability, T/C (second compound 1 µM, first compound 0.1 µM): 28.7%
viability, T/C (second compound 1 µM, first compound 0.316 µM): 29.8%
viability, T/C (second compound 1 µM, first compound 1 µM): 32.5%
viability, T/C (second compound 1 µM, first compound 3.16 µM): 30.9%
viability, T/C (second compound 1 µM, first compound 10 µM): 16.1%
